Results reported in EP1298214A2, “Plant thioesterases” (Calgene LLC, priority 1990, dated 1991).

tested on: Cuphea C10-preferring acyl-ACP thioesterase (preparation from Example 9C); assay: Acyl-ACP hydrolysis by the Cuphea preparation from Example 9C; type: biochemical, Cuphea hookeriana; conditions: 0.5µM acyl-ACP, pH 9, 30°C for 60 min; corrected for non-enzymatic hydrolysis
Method: As a more preferred alternative to Example 9A or 9B, forty grams of polyvinylpolypyrrolidone (PVPP) are mixed with 550 ml "extraction buffer" comprising 200 mM bis-Tris-HCl pH 6., 10mM 2-mercaptoethanol, 1% (w/v) polyvinylpyrrolidone-10. To this mixture are added 40g frozen Cuphea seeds. The mixture is then blended in a Polytron homogenizer until no intact seeds remain and the slurry is smooth. This and all subsequent steps are conducted at 0-4°C. The preparation is centrifuged at 12,000xg for 20 min and further clarified by filtration through Miracloth.
This preparation is mixed with 100ml of settled hydroxyapatite which has been equilibrated with "buffer A" (50mM bis-Tris-HCl pH 6., […] 2-mercaptoethanol). Three extract volumes of 10mM 2-mercaptoethanol are then added slowly over 30 min, with constant stirring. The hydroxyapatite gel is collected on a sintered glass funnel and rinsed with buffer A until the effluent is colorless. The collected hydroxyapatite is then transferred to a column and further rinsed with buffer A at 2ml/min until the column is packed. A 400ml elution gradient is applied (2ml/min), from buffer A to buffer B (300mM potassium phosphate pH 6.9 in buffer A). Effluent fractions are assayed for hydrolysis of 10:0-ACP. Two overlapping peaks of activity are obtained. The fractions comprising the later-eluting peak are pooled and dialyzed against buffer A.
The dialyzed material is applied at 1.3ml/min to a 2.5 x 6.5cm column of Blue 4 Agarose (Sigma Chemical Co.; St. Louis, MO) equilibrated with buffer A. The column is washed with buffer A, and enzyme activity is subsequently eluted with a 400ml gradient from buffer A to buffer C (buffer A containing 1M NaCl). The eluted fractions contain three peaks of 10:0-ACP hydrolysis activity. Those fractions comprising the second peak to elute (eluted by approximately 0.4m NaCl) are pooled and dialyzed against buffer A. […]
The preparation from Example 9C is relatively selective in its hydrolysis of acyl-ACP thioesters, as shown in the following table: (These activities were determined as follows. Twenty five µl of sample were added to 75µl assay buffer comprising 100mM glycine-KOH pH 9, 0.2% (w/v) CHAPS, 10mM 2-mercaptoethanol, and containing radiolabeled acyl-ACP for a final concentration of 0.5µM. After incubation at 30°C for 60 min, the reaction was terminated by addition of 0.5ml 10% (v/v) acetic acid, and the liberated fatty acid product was extracted with 1ml diethyl ether. Enzyme activity was measured by the radioactivity of this ether extract, determined by liquid scintillation counting. […]

Substance | Activity [cpm]
14:0-ACP | 30
16:0-ACP | 262
decanoyl-ACP [10:0-ACP] | 1010
lauroyl-ACP [12:0-ACP] | 393
